Reference: patent publication US6780848B2, “Use of GPE to protect glial cells or non-dopaminergic cells from death from neural injury or disease” (NeuronZ, Ltd., priority 1993, dated 2004)

Experiments:
[1] = test system: hypoxic-ischemic injury, 21 day old Wistar rats; settings: rat, in vivo, ip
Procedure: The objective of this study was to compare the effects of treatment with GPE to that of a vehicle given 2 hours after an hypoxic-ischemic injury. The dose range of 2 to 200 μg was chosen to span a range of systemic doses that are greater than that required centrally (see experiment 3).
Unilateral hypoxic-ischemic injury was induced in 21 day old, 45±5 g Wistar rats. The rats underwent unilateral carotid ligation under light halothane anaesthesia.
Following one hour recovery they were placed in an incubator at 34 deg C. 85±5% humidity for one hour before the injury. They were subjected to 1 min inhalation hypoxia (FiO2 8.0%) and then returned to room temperature (22 deg C.) and normoxia. […]
Surviving and dead neurons were discriminated using the thionin/acid fuchsin staining technique (Guan et al J Cereb Blood Flow Metab. 13:609-616 (1993). The results, in which the height of a point is given by the ratio as a percentage of live neurones in the CA1-2 region on the right side to the number on the left side are shown in FIG. 5. Column A is vehicle, column B is 2 μg of GPE, column C is 20 μg of GPE, and column D is 200 μg of GPE. In this figure, the P value (0.031) was calculated by a method using one way ANOVA comparing many groups after Arcsin transformation.

[2] = test system: hypoxic-ischemic injury to one cerebral hemisphere, adult Wistar rats; test: Experiment 1: IGF-1 and/or MK801 2 hours after unilateral hypoxic-ischemic injury, histology at 120 hours; type: in vivo, rat; settings: treatment 2 hours after hypoxia, IGF-1 50 μg intraventricular, MK801 1 mg, controls 65%
Procedure: One carotid artery was ligated and the animal was subjected two hours later to a defined period of inhalational hypoxia. The degree, length of hypoxia, ambient temperature and humidity were defined to standardise the degree of damage. They were sacrificed five days later for histological analysis using stains (acid-fuchsin) specific for necrotic neurons.
Adult Wistar rats (68 280-320 g) were prepared under 3% halothane/O2 anaesthesia. The right side carotid artery was ligated. A guide cannula was placed on the dura 8.2 mm anterior from bregma and 1.4 mm from midline on the right. The rats were allowed to recover from anaesthesia for 1 hour and were then placed in an incubator with humidity 85±5% and temperature 34±0.5C. for 1 hour before hypoxia. Oxygen concentration was reduced and maintained at 6±0.2 02% hypoxia for 10 minutes. […] Fifty micrograms of IGF-1 or vehicle alone (0.1% BSA in 0.15M PBS (pH 7.3)) were given via intra-ventricular (IVC) infusion. […] The intraventricular injections of 50 μg IGF-1 or vehicle alone were made into the right lateral ventricle at 1 μl/minute under 1.5%-2% halothane anaesthetic. […] The presence of cortical infarction, defined as a region of tissue death or parenchymal pan-necrosis due to death of glia as well as neurons, was determined via light microscopy by an assessor who was blinded to the experimental groupings.

[3] = test system: ischemic brain injury, late gestation fetal sheep; test: Experiment 2: IGF-1 into lateral ventricle 2 hours after 30 minutes of brain ischemia in fetal sheep; type: in vivo
Text: The objective of this study was to compare the effects of treatment either with IGF-1 (see FIG. 2) and previously published work with the NMDA antagonist MK810 after an ischemic brain injury on postischernic seizures and neuronal losses in fetal sheep. (Tan et al Ann Neurol 32:677-682 (1992)).
The methods were those of an earlier study (Tan et al Ann Neurol 32:677-682 (1992)). Briefly, late gestation fetal sheep were chronically instrumented to record EEG, nuchal activity and blood pressure, and were then returned to the uterus. Cortical EEG activity, nuchal activity and blood pressure were recorded throughout he experiment and the fetal brain subjected to 30 minutes of ischemia. Two hours later they were treated by an infusion of either 1 μg IGF-1 (n=6) or vehicle (artificial CSF) (n=6) into the lateral ventricle. Five days later the brains were fixed and assessed for neuronal loss as described previously (Tan et al Ann Neurol 32:677-682 (1992)).
In all cases the vehicle is the left-hand column and the effects of 1 μg of IGF-1 is on the right.

[4] = test system: ischemic brain injury, late gestation fetal sheep; settings: ischemic model in fetal sheep; Tan et al Ann Neurol 32:677-682 (1992); cited from earlier work

| Compound | passage of the blood-brain barrier [1] | incidence of cortical infarction [2] [%] | suppression of postischemic seizure activity ([3]; 1 μg IGF-1 2 h after ischemia) | neuronal rescue (neuronal loss scores) ([3]; 1 μg IGF-1 into lateral ventricle 2 h after 30 minutes ischemia, assessed five days later) | suppression of cortical electroencephalographic activity [4] |
| --- | --- | --- | --- | --- | --- |
| NCC(=O)N1CCC[C@H]1C(=O)N[C@@H](CCC(=O)O)C(=O)O [GPE, gly-pro-glu] | can cross the blood-brain barrier | – | – | – | – |
| C[C@]12N[C@H](Cc3ccccc31)c1ccccc12 [MK801, reference compound] | – | 50 | – | – | – |
| insulin-like growth factor 1 [IGF-1] | – | 33 | did not suppress the postischemic seizure activity | rescued neurons | did not suppress cortical electroencephalographic activity |
